This note sets out measurements from ChEMBL document CHEMBL1142279, “Optimization of 2,3,5-trisubstituted pyridine derivatives as potent allosteric Akt1 and Akt2 inhibitors” (Bioorg Med Chem Lett, 2008).

Molecules are shown by their SMILES. Bounds are passed on as bounds.

In data set [1] the target is RAC-alpha serine/threonine-protein kinase (Homo sapiens) (UniProt P31749). Kind of data set: Inhibition of human recombinant Akt1.
For data set [2], the target named is RAC-beta serine/threonine-protein kinase (Homo sapiens) (UniProt P31751). Put plainly: Inhibition of human recombinant Akt2.
Data set [3] concerns the target RAC-alpha serine/threonine-protein kinase (Homo sapiens) (UniProt P31749). Put plainly: Inhibition of Akt1 in human C33a cells. It is filed as cell-based.
Data set [4] in a line: Inhibition of SGK.
For data set [5], the target named is RAC-beta serine/threonine-protein kinase (Homo sapiens) (UniProt P31751). Put plainly: Inhibition of Akt2 in human C33a cells. In kind it is cell-based.
Data set [6] addresses RAC-gamma serine/threonine-protein kinase (Homo sapiens) (UniProt Q9Y243). Put plainly: Inhibition of human recombinant Akt3.
Data set [7] is described as follows: Clearance in dog at 0.25 mg/kg, iv. Further details: dose 0.25 mg/kg, route intravenous. In kind it is ADME, organism-based, Canis lupus familiaris. The following applies: in vivo.
The nature of data set [8]: Inhibition of PKA.
A short description of data set [9]: Inhibition of PKC.
Data set [10] in a line: Volume of distribution at steady state in dog at 0.25 mg/kg, iv. It is filed as ADME, organism-based, Canis lupus familiaris. On the set-up: dose 0.25 mg/kg, route intravenous. The following applies: in vivo, read-out: Vdss.
A short description of data set [11]: Half life in dog at 0.25 mg/kg, iv. As to conditions: in vivo. On the set-up: dose 0.25 mg/kg, route intravenous. It is filed as ADME, organism-based, Canis lupus familiaris.
Data set [12] has as its target Protein kinase C alpha type (Homo sapiens) (UniProt P17252). Put plainly: Inhibition of PKCalpha.

Sequence of RAC-gamma serine/threonine-protein kinase (Homo sapiens) (Q9Y243 whole entry): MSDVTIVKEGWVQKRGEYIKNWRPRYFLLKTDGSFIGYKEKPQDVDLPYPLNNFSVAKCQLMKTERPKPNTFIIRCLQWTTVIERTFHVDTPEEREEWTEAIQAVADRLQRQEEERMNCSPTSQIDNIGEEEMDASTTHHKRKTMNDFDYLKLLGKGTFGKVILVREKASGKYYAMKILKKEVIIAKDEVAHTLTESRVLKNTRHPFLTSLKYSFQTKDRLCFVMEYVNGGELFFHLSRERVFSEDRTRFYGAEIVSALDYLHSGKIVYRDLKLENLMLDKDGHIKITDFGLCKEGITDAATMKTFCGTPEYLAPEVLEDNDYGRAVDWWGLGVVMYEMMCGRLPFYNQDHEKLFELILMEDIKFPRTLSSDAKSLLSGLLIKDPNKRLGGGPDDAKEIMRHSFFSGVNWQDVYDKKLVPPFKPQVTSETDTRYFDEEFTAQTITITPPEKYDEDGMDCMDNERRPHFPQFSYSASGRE
Sequence of RAC-alpha serine/threonine-protein kinase (Homo sapiens) (P31749 whole entry): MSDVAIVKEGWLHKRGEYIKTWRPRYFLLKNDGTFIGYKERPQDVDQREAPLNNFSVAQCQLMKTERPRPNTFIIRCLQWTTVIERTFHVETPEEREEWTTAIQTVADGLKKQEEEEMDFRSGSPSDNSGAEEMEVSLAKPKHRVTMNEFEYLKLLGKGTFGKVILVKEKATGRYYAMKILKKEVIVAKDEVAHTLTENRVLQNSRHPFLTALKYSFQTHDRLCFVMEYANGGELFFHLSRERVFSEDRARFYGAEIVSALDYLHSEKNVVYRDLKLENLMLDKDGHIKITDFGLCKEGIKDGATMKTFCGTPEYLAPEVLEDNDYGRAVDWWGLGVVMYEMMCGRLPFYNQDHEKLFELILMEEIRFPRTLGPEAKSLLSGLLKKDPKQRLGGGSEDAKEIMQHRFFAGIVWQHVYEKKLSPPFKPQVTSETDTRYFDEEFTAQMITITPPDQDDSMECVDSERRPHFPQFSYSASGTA
Sequence of RAC-beta serine/threonine-protein kinase (Homo sapiens) (P31751 whole entry): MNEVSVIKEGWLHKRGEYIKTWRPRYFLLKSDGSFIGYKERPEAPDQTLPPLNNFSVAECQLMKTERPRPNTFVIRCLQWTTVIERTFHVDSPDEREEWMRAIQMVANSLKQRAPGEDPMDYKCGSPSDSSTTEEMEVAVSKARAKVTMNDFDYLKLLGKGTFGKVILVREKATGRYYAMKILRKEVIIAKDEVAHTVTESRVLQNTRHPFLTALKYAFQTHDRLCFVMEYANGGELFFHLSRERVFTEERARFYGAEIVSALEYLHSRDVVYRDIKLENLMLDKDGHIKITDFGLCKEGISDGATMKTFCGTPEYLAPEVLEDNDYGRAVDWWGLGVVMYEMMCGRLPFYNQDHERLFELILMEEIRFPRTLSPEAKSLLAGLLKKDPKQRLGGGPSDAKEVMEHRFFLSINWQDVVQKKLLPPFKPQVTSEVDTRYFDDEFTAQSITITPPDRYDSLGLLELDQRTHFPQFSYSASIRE

Usually IC50 stands for the concentration needed to halve the response being measured. Low values mean inhibition by little substance, high ones a need for much substance. In the case of `Nc1nnc(-c2cnc(-c3ccc(CN4CCC(n5c(=O)[nH]c6ncccc65)CC4)cc3)c(-c3ccccc3)c2)s1`, the Activity in data set [1] was 434 nM; in [2], 73 nM; in data set [3], 12600 nM; in data set [5] it was 3960 nM. Besides, in [4], the concentration for half-maximal inhibition (IC50) was > 50 µM.

Consider `Nc1nnc(-c2cnc(-c3ccc(CN4CCC(n5cc(-c6ccccn6)cn5)CC4)cc3)c(-c3ccccc3)c2)s1`, for which the Activity in data set [1] is 214 nM; in data set [2] it was 90 nM; in data set [3], 1350 nM; in data set [5] it was 1350 nM. The concentration for half-maximal inhibition (IC50) in data set [4] is > 50 µM.

Consider `Nc1nnc(-c2cnc(-c3ccc(CNCCC(=O)c4ccccc4N)cc3)c(-c3ccccc3)c2)s1`, for which the Activity turned out to be 114 nM in [1], 30 nM in data set [2], 618 nM in data set [3] and 472 nM in [5].

For `Nc1nnc(-c2cnc(-c3ccc(CN4CCC(n5cc(-c6cnccn6)cn5)CC4)cc3)c(-c3ccccc3)c2)s1`, the Activity is 172 nM in data set [1], 51 nM in data set [2], 1380 nM in [3] and 2030 nM in data set [5]. Besides, the IC50 in data set [4] is > 50 µM.

For `Nc1ncnc2c1cnn2C1CCN(Cc2ccc(-c3ncc(-c4ncon4)cc3-c3ccccc3)cc2)CC1`, the Activity in data set [1] was 180 nM; in [2], 121 nM; in [3], 288 nM; in data set [5], 1060 nM. Further, in data set [4], the IC50 was > 50 µM.

On to `Nc1ncnc2c1ncn2C1CCN(Cc2ccc(-c3ncc(-c4nnn[nH]4)cc3-c3ccccc3)cc2)CC1`, for which the Activity was 210 nM in [1]; 105 nM in data set [2]; > 50000 nM in data set [3]; > 50000 nM in [5]; > 50 µM in [6].

Usually clearance stands for a measure of how efficiently the substance is removed, as volume per time. By half-life is commonly meant how long it takes for the measured level to halve. In data set [7], `Nc1nnc(-c2cnc(-c3ccc(CN4CCC(n5ncc6c(N)ncnc65)CC4)cc3)c(-c3ccccc3)c2)s1` returned a clearance of 1.37 mL/min/kg. In addition, the Activity in data set [1] came to 126 nM; in data set [2], 22 nM; in data set [3], 621 nM; in [5] it was 416 nM. In addition, the half-inhibitory concentration (IC50) is > 10 µM in [8], > 10 µM in data set [9], > 50 µM in [4] and > 10 µM in data set [12]. In data set [10], the Vd came to 0.41 L/kg. Further, the half-life in data set [11] was 3.62 h.

Take `O=c1[nH]c2ccccc2n1C1CCN(Cc2ccc(-c3ncc(-c4nnn[nH]4)cc3-c3ccccc3)cc2)CC1`: the Activity is 273 nM in data set [1]; 150 nM in data set [2]; > 50000 nM in data set [3]; > 50000 nM in [5]; > 50 µM in data set [6].

Take `Nc1ncnc2c1cnn2C1CCN(Cc2ccc(-c3ncc(-c4nccs4)cc3-c3ccccc3)cc2)CC1`: the Activity worked out at 264 nM in data set [1], 64 nM in [2], 1650 nM in [3] and 3240 nM in [5]. In addition, the IC50 in data set [4] is > 50 µM.

As to `Nc1nnc(-c2cnc(-c3ccc(CN4CCC(c5cc(-c6ccncc6)[nH]n5)CC4)cc3)c(-c3ccccc3)c2)s1`, the Activity in data set [1] was determined as 123 nM; in data set [2], 38 nM; in [3] it was 407 nM; in data set [5] it was 153 nM. The IC50 in data set [4] was > 50 µM.

On to `N#Cc1cnc(-c2ccc(CN3CCC(n4c(=O)[nH]c5ccccc54)CC3)cc2)c(-c2ccccc2)c1`, for which the Activity in [1] is 762 nM; in [2] it was 3140 nM; in [3], > 50000 nM; in data set [5] it was > 50000 nM; in data set [6], > 50 µM.

With `Nc1ncnc2c1cnn2C1CCN(Cc2ccc(-c3ncc(-c4nc[nH]n4)cc3-c3ccccc3)cc2)CC1`, the Activity was 182 nM in data set [1], 101 nM in data set [2], 890 nM in [3] and 666 nM in data set [5]. Further, the IC50 in data set [4] is > 50 µM.

Consider `Nc1nnc(-c2cnc(-c3ccc(CN4CCC(c5cc(-c6ccccn6)[nH]n5)CC4)cc3)c(-c3ccccc3)c2)s1`, for which the Activity in [1] turned out to be 95 nM; in data set [2], 28 nM; in data set [3] it was 734 nM; in [5], 300 nM. Further, the IC50 in [4] is > 50 µM.

Consider `Nc1ncnc2c1cnn2C1CCN(Cc2ccc(-c3ncc(-c4ncccn4)cc3-c3ccccc3)cc2)CC1`, for which the Activity came out at 306 nM in [1], 62 nM in [2], 1950 nM in data set [3] and 3460 nM in data set [5]. Besides, in [4], the 50% inhibitory concentration (IC50) was > 50 µM.

For the molecule `Nc1ncnc2c1cnn2C1CCN(Cc2ccc(-c3ncc(-c4ccccn4)cc3-c3ccccc3)cc2)CC1`, the Activity in data set [1] was determined as 1630 nM; in data set [2], 370 nM; in data set [3] it was 10000 nM; in data set [5] it was 8110 nM.

As to `Nc1nnc(-c2cnc(-c3ccc(CN4CCC(c5n[nH]c(-c6ccccn6)n5)CC4)cc3)c(-c3ccccc3)c2)s1`, the Activity in data set [1] was found to be 85 nM; in [2], 22 nM; in data set [3], 516 nM; in data set [5], 330 nM. Further, in data set [4], the IC50 is > 50 µM.
